Measured values taken from US11149011B2, “Compounds and methods for IDO and TDO modulation, and indications therefor” (Plexxikon Inc., priority 2018, dated 2021).

Key:
[1] = target: T1, IDO1-expressing HEK293 cell clones (Homo sapiens, UniProt P14902); assay: Cell based kynurenine assay, IDO1-expressing HEK293 cell clones; details: HEK293 cells, 24 hours of incubation, geometric mean; read-out: HEK293 IDO1 Kynurenine GMean IC50 (μM) (Cellular Assay)
T1 construct: expressed in transfected cells; host or cells: HEK293
T1 sequence (P14902 whole entry): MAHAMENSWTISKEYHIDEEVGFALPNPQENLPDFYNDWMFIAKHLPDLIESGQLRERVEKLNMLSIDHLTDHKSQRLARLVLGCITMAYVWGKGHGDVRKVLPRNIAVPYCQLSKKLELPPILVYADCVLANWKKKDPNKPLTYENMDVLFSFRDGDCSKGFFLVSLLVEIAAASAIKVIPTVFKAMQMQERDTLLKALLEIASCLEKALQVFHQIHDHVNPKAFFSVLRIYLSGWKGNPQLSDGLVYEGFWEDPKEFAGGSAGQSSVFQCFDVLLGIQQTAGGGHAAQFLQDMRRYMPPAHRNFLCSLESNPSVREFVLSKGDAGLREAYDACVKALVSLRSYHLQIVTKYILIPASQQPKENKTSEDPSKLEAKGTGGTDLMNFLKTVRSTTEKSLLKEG
Method in brief: (§1)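 HEK293 clones stably transfected with CMV-driven human IDO1 or human TDO were seeded at 2.5×10^4 cells/well and treated with serial compound dilutions for 24 hours. Supernatant kynurenine was measured. % inhibition versus DMSO-cell and media-only controls was fitted by nonlinear regression to give IC50.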

TDO = target: T2, TDO (Homo sapiens, UniProt P48775); assay: TDO enzymatic assay; details: geometric mean; read-out: TDO GMean: IC50 (μM) (Biochemical Assay)
T2 construct: His tag (N); made in house; host or cells: E. coli
T2 sequence (P48775 whole entry): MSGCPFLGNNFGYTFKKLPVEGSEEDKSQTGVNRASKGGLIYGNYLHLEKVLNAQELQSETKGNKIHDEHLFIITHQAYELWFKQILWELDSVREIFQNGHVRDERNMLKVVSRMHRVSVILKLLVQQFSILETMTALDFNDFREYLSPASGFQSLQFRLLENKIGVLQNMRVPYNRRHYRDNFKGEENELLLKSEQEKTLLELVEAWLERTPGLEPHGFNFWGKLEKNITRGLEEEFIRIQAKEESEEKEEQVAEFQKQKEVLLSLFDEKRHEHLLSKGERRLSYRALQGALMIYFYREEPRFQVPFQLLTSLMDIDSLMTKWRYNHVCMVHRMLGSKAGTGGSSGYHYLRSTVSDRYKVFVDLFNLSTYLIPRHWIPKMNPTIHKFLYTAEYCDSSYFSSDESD
Method in brief: (§2)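 N-His human enzymes from E. coli in 50 mM sodium phosphate pH 6.5 with ascorbate, catalase, Tween 20. IDO: 6 nM enzyme, 10 μM L-Trp, 5 μM methylene blue, 20 min RT; TDO: 1 nM enzyme, 350 μM L-Trp, 0.4 μM methylene blue, 70 min RT. TCA stop, kynurenine measured; IC50 by nonlinear regression.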

IDO1 = target: T3, IDO1 (Homo sapiens, UniProt P14902); assay: IDO enzymatic assay; type: biochemical; details: geometric mean; read-out: IDO1 GMean: IC50 (μM) (Biochemical Assay)
T3 construct: His tag (N); made in house; host or cells: E. coli
T3 sequence (P14902 whole entry): as the sequence (P14902 whole entry) above
Method in brief: as §2

[2] = target: T4, TDO-expressing HEK293 cell clones (Homo sapiens, UniProt P48775); assay: Cell based kynurenine assay, TDO-expressing HEK293 cell clones; details: HEK293 cells, 24 hours of incubation, geometric mean; read-out: HEK293 TDO Kynurenine GMean IC50 (μM) (Cellular Assay)
T4 construct: expressed in transfected cells; host or cells: HEK293
T4 sequence (P48775 whole entry): as the sequence (P48775 whole entry) above
Method in brief: as §1

IC50 [1] | IC50 (TDO) | IC50 (IDO1) | IC50 [2] | Structure (SMILES)
0.0001 to 10 µM | 0.0001 to 10 µM | 0.0001 to 10 µM | 0.0001 to 10 µM | CCCNC(=O)N1CCC(C(C)(C)C(O)c2cc(Cl)cc3[nH]ncc23)CC1 (centres unmarked) [Compound P-0077, 4-(1-(6-chloro-1H-indazol-4-yl)-1-hydroxy-2-methylpropan-2-yl)-N-propylpiperidine-1-carboxamide]
0.0001 to 10 µM | 0.0001 to 10 µM | 0.0001 to 10 µM | 0.0001 to 10 µM | CC(C)(C1CCN(C(=O)NCC(F)(F)F)CC1)C(O)c1cc(Cl)cc2[nH]ncc12 (centres unmarked) [Compound P-0084, 4-(1-(6-chloro-1H-indazol-4-yl)-1-hydroxy-2-methylpropan-2-yl)-N-(2,2,2-trifluoroethyl)piperidine-1-carboxamide]
0.0001 to 10 µM | 0.0001 to 10 µM | 0.0001 to 10 µM | 0.0001 to 10 µM | CC(C)(C1CCN(C(=O)C2CCC2)CC1)C(O)c1cc(Cl)cc2[nH]ncc12 (centres unmarked) [Compound P-0052, (4-(1-(6-chloro-1H-indazol-4-yl)-1-hydroxy-2-methylpropan-2-yl)piperidin-1-yl)(cyclobutyl)methanone]

More lines, now with the values behind:

Structure (SMILES) | IC50 [1] | IC50 (TDO) | IC50 (IDO1) | IC50 [2]
CC1(CNC(=O)N2CCC(C(C)(C)[C@H](O)c3cc(Cl)cc4cn[nH]c34)CC2)COC1 [Compound P-0031, (S)-4-(1-(5-chloro-1H-indazol-7-yl)-1-hydroxy-2-methylpropan-2-yl)-N-((3-methyloxetan-3-yl)methyl)piperidine-1-carboxamide] | 0.0001 to 10 µM | 0.0001 to 10 µM | 0.0001 to 10 µM | > 10 µM
COCC(=O)N1CCC(C(F)(F)C(=O)c2c(F)c(Cl)cc3cn[nH]c23)CC1 [Compound P-0034, 1-(5-chloro-6-fluoro-1H-indazol-7-yl)-2,2-difluoro-2-(1-(2-methoxyacetyl)piperidin-4-yl)ethan-1-one] | 0.0001 to 10 µM | 0.0001 to 10 µM | 0.0001 to 10 µM | 0.0001 to 10 µM
CC(C)(C1CCN(C(=O)NCC2(O)CCC2)CC1)[C@H](O)c1cc(Cl)cc2cn[nH]c12 [Compound P-0029, (S)-4-(1-(5-chloro-1H-indazol-7-yl)-1-hydroxy-2-methylpropan-2-yl)-N-((1-hydroxycyclobutyl)methyl)piperidine-1-carboxamide] | 0.0001 to 10 µM | 0.0001 to 10 µM | 0.0001 to 10 µM | 0.0001 to 10 µM
CON(C)C(=O)N1CCC(C(C)(C)[C@H](O)c2cc(Cl)cc3cn[nH]c23)CC1 [Compound P-0130, (S)-4-(1-(5-chloro-1H-indazol-7-yl)-1-hydroxy-2-methylpropan-2-yl)-N-methoxy-N-methylpiperidine-1-carboxamide] | 0.0001 to 10 µM | 0.0001 to 10 µM | 0.0001 to 10 µM | 0.0001 to 10 µM
CC(C)(C1CCN(C(=O)NCC2COC2)CC1)[C@H](O)c1cc(Cl)cc2cn[nH]c12 [Compound P-0023, (S)-4-(1-(5-chloro-1H-indazol-7-yl)-1-hydroxy-2-methylpropan-2-yl)-N-(oxetan-3-ylmethyl)piperidine-1-carboxamide] | 0.0001 to 10 µM | 0.0001 to 10 µM | 0.0001 to 10 µM | 0.0001 to 10 µM
CCONC(=O)N1CCC(C(C)(C)[C@H](O)c2cc(Cl)cc3cn[nH]c23)CC1 [Compound P-0121, (S)-4-(1-(5-chloro-1H-indazol-7-yl)-1-hydroxy-2-methylpropan-2-yl)-N-ethoxypiperidine-1-carboxamide] | 0.0001 to 10 µM | 0.0001 to 10 µM | 0.0001 to 10 µM | 0.0001 to 10 µM
CNCC(=O)N1CCC(C(C)(C)[C@H](O)c2cc(Cl)cc3cn[nH]c23)CC1 [Compound P-0128, (S)-1-(4-(1-(5-chloro-1H-indazol-7-yl)-1-hydroxy-2-methylpropan-2-yl)piperidin-1-yl)-2-(methylamino)ethan-1-one] | 0.0001 to 10 µM | 0.0001 to 10 µM | 0.0001 to 10 µM | 0.0001 to 10 µM
C[C@H](N)C(=O)N1CCC(C(C)(C)[C@H](O)c2cc(Cl)cc3cn[nH]c23)CC1 [Compound P-0127, (S)-2-amino-1-(4-((S)-1-(5-chloro-1H-indazol-7-yl)-1-hydroxy-2-methylpropan-2-yl)piperidin-1-yl)propan-1-one] | 0.0001 to 10 µM | 0.0001 to 10 µM | 0.0001 to 10 µM | 0.0001 to 10 µM
